The subject of the assay is AKR/Lw mice, AKR lymphoma ip, median survival T/C. The assay is described as follows: NCI In Vivo Anticancer Drug Screen. Data for tumor model Lymphoma AKR (Transplanted) (intraperitoneal) in AKR/Lw mice. Particulars: endpoint: median survival time, higher = longer survival. How it is done: The antitumor activity of compounds was measured in mice bearing transplantable tumors. Survival or tumor size were measured and the results are expressed as the measurement made in the treated group (T) divided by the measurement made in the vehicle treated control group (C). The tumor model used in this assay is Lymphoma AKR (Transplanted) (intraperitoneal) in AKR/Lw mice

[1] abbreviates: dose: 100.0 mg/kg/injection, schedule: Q01DX001 (ip), vehicle: saline.
Where [2] appears, read: dose: 200.0 mg/kg/injection, schedule: Q01DX001 (ip), vehicle: saline.
Where [3] appears, read: dose: 400.0 mg/kg/injection, schedule: Q01DX001 (ip), vehicle: saline.
The mark [4] stands for this setting: dose: 100.0 mg/kg/injection, schedule: Q01DX001 (ip), vehicle: Klucel (hydroxypropylcellulose) (HPC).
[5] abbreviates: dose: 200.0 mg/kg/injection, schedule: Q01DX001 (ip), vehicle: Klucel (hydroxypropylcellulose) (HPC).
The mark [6] stands for this setting: dose: 200.0 mg/kg/injection, schedule: Q04DX003 (ip), vehicle: Klucel (hydroxypropylcellulose) (HPC).
[7] abbreviates: dose: 400.0 mg/kg/injection, schedule: Q01DX001 (ip), vehicle: Klucel (hydroxypropylcellulose) (HPC).
Setting [8] is: dose: 50.0 mg/kg/injection, schedule: Q01DX001 (ip), vehicle: saline.

Several values for one entry are separate records, joined by “and”; a condition that tells them apart may be missing. Identical values can stand only once. Inconclusive results and toxic doses are left out.

Take `CC[C@]1(O)C[C@H]2CN(CCc3c([nH]c4ccccc34)[C@@](C(=O)OC)(c3cc4c(cc3OC)N(C=O)[C@H]3[C@@](O)(C(=O)OC)[C@H](OC(C)=O)[C@]5(CC)C=CCN6CC[C@]43[C@@H]65)C2)C1`: the T/C reads like this: (dose: 0.01 mg/kg/injection, schedule: Q10DX002 (ip), vehicle: saline) 113 % of control; (dose: 0.02 mg/kg/injection, schedule: Q01DX001 (ip), vehicle: saline) 110 % of control; (dose: 0.02 mg/kg/injection, schedule: Q04DX003 (ip), vehicle: saline) 86 % of control; (dose: 0.02 mg/kg/injection, schedule: Q10DX002 (ip), vehicle: saline) 119 % of control; (dose: 0.03 mg/kg/injection, schedule: Q04DX003 (ip), vehicle: saline) 93 % of control and 107 % of control and 114 % of control; (dose: 0.03 mg/kg/injection, schedule: Q10DX002 (ip), vehicle: saline) 119 % of control. In addition, the T/C reads like this: (dose: 0.05 mg/kg/injection, schedule: Q01DX001 (ip), vehicle: saline) 101 % of control; (dose: 0.05 mg/kg/injection, schedule: Q04DX003 (ip), vehicle: saline) 94 % of control; (dose: 0.06 mg/kg/injection, schedule: Q04DX002 (ip), vehicle: saline) 110 % of control; (dose: 0.06 mg/kg/injection, schedule: Q04DX003 (ip), vehicle: saline) 111 % of control and 116 % of control; (dose: 0.1 mg/kg/injection, schedule: Q01DX001 (ip), vehicle: saline) 103 % of control; (dose: 0.1 mg/kg/injection, schedule: Q04DX003 (ip), vehicle: saline) 94 % of control. For the same compound, the T/C reads like this: (dose: 0.12 mg/kg/injection, schedule: Q01DX001 (ip), vehicle: saline) 100 % of control and 111 % of control and 119 % of control; (dose: 0.12 mg/kg/injection, schedule: Q01DX009 (ip), vehicle: saline) 109 % of control; (dose: 0.13 mg/kg/injection, schedule: Q04DX002 (ip), vehicle: water) 90 % of control and 95 % of control; (dose: 0.2 mg/kg/injection, schedule: Q04DX003 (ip), vehicle: saline) 94 % of control; (dose: 0.25 mg/kg/injection, schedule: Q01DX009 (ip), vehicle: saline) 109 % of control; (dose: 0.4 mg/kg/injection, schedule: Q04DX003 (ip), vehicle: saline) 118 % of control. The T/C (dose: 0.5 mg/kg/injection, schedule: Q04DX002 (ip), vehicle: saline) was 223 % of control; the T/C (dose: 0.5 mg/kg/injection, schedule: Q04DX002 (ip), vehicle: water) is 107 % of control and 109 % of control; the T/C (dose: 0.75 mg/kg/injection, schedule: Q01DX001 (ip), vehicle: saline) was 157 % of control; the T/C (dose: 1.0 mg/kg/injection, schedule: Q04DX003 (ip), vehicle: saline) was 359 % of control; the T/C (dose: 1.0 mg/kg/injection, schedule: Q10DX002 (ip), vehicle: saline) is 33 % of control; the T/C (dose: 1.5 mg/kg/injection, schedule: Q10DX002 (ip), vehicle: saline) was 68 % of control. The T/C by setting is: (dose: 0.2 micrograms/kg/injection, schedule: Q01DX009 (ip), vehicle: saline) 103 % of control; (dose: 0.5 micrograms/kg/injection, schedule: Q01DX009 (ip), vehicle: saline) 100 % of control; (dose: 0.6 micrograms/kg/injection, schedule: Q01DX009 (ip), vehicle: saline) 96 % of control; (dose: 1.0 micrograms/kg/injection, schedule: Q01DX009 (ip), vehicle: saline) 86 % of control and 100 % of control; (dose: 1.2 micrograms/kg/injection, schedule: Q01DX009 (ip), vehicle: saline) 87 % of control; (dose: 2.0 micrograms/kg/injection, schedule: Q01DX009 (ip), vehicle: saline) 94 % of control. Moreover, the T/C reads like this: (dose: 6.0 micrograms/kg/injection, schedule: Q01DX009 (ip), vehicle: saline) 102 % of control and 114 % of control; (dose: 15.0 micrograms/kg/injection, schedule: Q01DX009 (ip), vehicle: saline) 122 % of control; (dose: 20.0 micrograms/kg/injection, schedule: Q01DX009 (ip), vehicle: saline) 97 % of control; (dose: 25.0 micrograms/kg/injection, schedule: Q01DX009 (ip), vehicle: saline) 97 % of control; (dose: 30.0 micrograms/kg/injection, schedule: Q01DX009 (ip), vehicle: saline) 112 % of control; (dose: 50.0 micrograms/kg/injection, schedule: Q01DX009 (ip), vehicle: saline) 102 % of control. For the same compound, the T/C (dose: 60.0 micrograms/kg/injection, schedule: Q01DX009 (ip), vehicle: saline) was 120 % of control and the T/C (dose: 100.0 micrograms/kg/injection, schedule: Q01DX009 (ip), vehicle: saline) was 114 % of control.

As to `COc1ccc(/C=C2\CCC3C(=O)CCCC3(C)C2=O)cc1` (stereo not drawn), the T/C runs as follows: under setting [1], 90 % of control; under setting [2], 100 % of control; under setting [3], 97 % of control.

As to `Clc1ccc(/C(=[C](\[Hg]/[C](=C(\c2ccccc2)c2ccc(Cl)cc2)c2ccccc2)c2ccccc2)c2ccccc2)cc1`, the T/C reads like this: under setting [4], 97 % of control; (dose: 100.0 mg/kg/injection, schedule: Q04DX003 (ip), vehicle: Klucel (hydroxypropylcellulose) (HPC)) 100 % of control; under setting [5], 107 % of control; under setting [6], 88 % of control; under setting [7], 97 % of control; (dose: 400.0 mg/kg/injection, schedule: Q04DX003 (ip), vehicle: Klucel (hydroxypropylcellulose) (HPC)) 100 % of control.

On to `O=C(O)O`, for which the T/C is 86 % of control under setting [1], 117 % of control under setting [2] and 95 % of control under setting [3].

As for `CCN(CC)CCOc1ccc2c(c1)C(=O)c1cc(OCCN(CC)CC)ccc1-2`, the T/C was 106 % of control (dose: 2.5 mg/kg/injection, schedule: Q01DX001 (ip), vehicle: saline); 106 % of control (dose: 5.0 mg/kg/injection, schedule: Q01DX001 (ip), vehicle: saline); 106 % of control (dose: 10.0 mg/kg/injection, schedule: Q01DX001 (ip), vehicle: saline); 100 % of control (dose: 20.0 mg/kg/injection, schedule: Q01DX001 (ip), vehicle: saline); 272 % of control (dose: 25.0 mg/kg/injection, schedule: Q01DX007 (ip), vehicle: saline); 102 % of control under setting [8]. The T/C (dose: 50.0 mg/kg/injection, schedule: Q01DX007 (ip), vehicle: saline) is 102 % of control.

`CCCCCCCC(=O)NCCCC`: the T/C is 96 % of control under setting [4], 96 % of control under setting [5] and 92 % of control under setting [7].

Take `CCn1c(O)c(C=N)c(=O)[nH]c1=O`: the T/C runs as follows: under setting [8], 102 % of control; (dose: 50.0 mg/kg/injection, schedule: Q04DX003 (ip), vehicle: Klucel (hydroxypropylcellulose) (HPC)) 87 % of control; under setting [1], 94 % of control; under setting [2], 94 % of control; under setting [6], 93 % of control.

`COc1ccc(/C=C2/CSC/C(=C/c3ccc(OC)c(OC)c3)C2=O)cc1OC`: the T/C is 96 % of control under setting [1], 88 % of control under setting [2] and 90 % of control under setting [3].

The values above are taken from PubChem BioAssay AID190 (DTP/NCI, 2004).
